From PMC4595804, “A strategy to discover decoy chemokine ligands with an anti-inflammatory activity” (Scientific Reports, 2015)

Assays:
Assay type in all cases: cell-based
CCL17 N78V = biological target: T1, CCL17 N78V (Homo sapiens, UniProt Q92583, N78V); test: Calcium responses induced by chemokine mutant, neutraligand protocol; details: 10 μM compound, 5 nM chemokine; remaining response
T1 construct: codes for the mature CCL17 or CCL22 with an N-terminal thioredoxin-hexahistidin (TRX- (His)6) tag; TRX-(His)6 (N, cleaved yes); made in house; host or cells: E. coli BL21 (DE3)
T1 sequence (Q92583 24-94 N78V): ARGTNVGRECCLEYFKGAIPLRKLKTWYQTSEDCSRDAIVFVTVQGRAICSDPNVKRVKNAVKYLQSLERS
Protocol: (§1) Dye loaded cells were placed in the FlexStation 3 (Molecular Devices). […] For the primary screening, the ligands (50μl of chemokine mixed with DMSO or test compounds) were added to the cells at 40 s, followed by digitonin addition (50μl) at 100 s to the cells. Molecules were screened at a final concentration of 2μg/ml with 5 nM CCL17 or CCL22. […] The calcium response values (height of peak response over baseline) were determined. Hits were selected by comparing the response amplitude at the time of the chemokine addition ± test compound. The Z’ factor[29] was calculated according to the following equation: Z’ = 1-(3SD+ + 3SD−)/|Ave+ − Ave−|, where SD+ and Ave+ are respectively the standard deviation and the mean value of the positive controls (chemokine + DMSO), while SD− and Ave− are respectively the standard deviation and the mean value of the negative controls (HEPES-BSA (0.1%) mixed with DMSO, or cells mixed with C-021). Hit molecules were confirmed by performing concentration-response curves and their half maximal inhibitory concentration (IC50) values were calculated using the Kaleidagraph software.
(§2) and the denaturated chemokines (disulfite bonds reduced by β-mercaptoethanol). The
(§3) chemokine activity was then, tested in the in vitro assays.
(§4) On-column refolding and purification of CCL5, CXCL8, CXCL10, CXCL11, CXCL12, CCL17
(§5) performed in a similar fashion as for CCL17 and CCL22. […]

CCL17 R80W = biological target: T2, CCL17 R80W (Homo sapiens, UniProt Q92583, R80W); test: as above; details: 10 μM compound, 5 nM chemokine; remaining response
T2 construct: codes for the mature CCL17 or CCL22 with an N-terminal thioredoxin-hexahistidin (TRX- (His)6) tag; TRX-(His)6 (N, cleaved yes); made in house; host or cells: E. coli BL21 (DE3)
T2 sequence (Q92583 24-94 R80W): as the sequence (Q92583 24-94 N78V) above, with V55N, R57W counted along it
Protocol: as §1, §2, §3, §4, §5

CCL17 S74A = biological target: T3, CCL17 S74A (Homo sapiens, UniProt Q92583, S74A); test: as above; details: 10 μM compound, 5 nM chemokine; remaining response
T3 construct: codes for the mature CCL17 or CCL22 with an N-terminal thioredoxin-hexahistidin (TRX- (His)6) tag; TRX-(His)6 (N, cleaved yes); made in house; host or cells: E. coli BL21 (DE3)
T3 sequence (Q92583 24-94 S74A): as the sequence (Q92583 24-94 N78V) above, with S51A, V55N counted along it
Protocol: as §1, §2, §3, §4, §5

CCL22 R80N = biological target: T4, CCL22 R80N (Homo sapiens, UniProt O00626, R80N); test: as above; details: 10 μM compound, 5 nM chemokine; remaining response
T4 construct: codes for the mature CCL17 or CCL22 with an N-terminal thioredoxin-hexahistidin (TRX- (His)6) tag; TRX-(His)6 (N, cleaved yes); made in house; host or cells: E. coli BL21 (DE3)
T4 sequence (O00626 25-93 R80N): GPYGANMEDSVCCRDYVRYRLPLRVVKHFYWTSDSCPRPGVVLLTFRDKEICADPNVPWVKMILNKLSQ
Protocol: (§6) Dye loaded cells were placed in the FlexStation 3 (Molecular Devices). Calcium mobilization was measured at 401 and 475 nm emission fluorescence after excitation at 355 nm. For the primary screening, the ligands (50μl of chemokine mixed with DMSO or test compounds) were added to the cells at 40 s, followed by digitonin addition (50μl) at 100 s to the cells. Molecules were screened at a final concentration of 2μg/ml with 5 nM CCL17 or CCL22. […] Raw fluorescence data (at 401 and 475 nm) were exported and the ratio 401/475 was calculated. The calcium response values (height of peak response over baseline) were determined. Hits were selected by comparing the response amplitude at the time of the chemokine addition ± test compound. The Z’ factor[29] was calculated according to the following equation: Z’ = 1-(3SD+ + 3SD−)/|Ave+ − Ave−|, where SD+ and Ave+ are respectively the standard deviation and the mean value of the positive controls (chemokine + DMSO), while SD− and Ave− are respectively the standard deviation and the mean value of the negative controls (HEPES-BSA (0.1%) mixed with DMSO, or cells mixed with C-021). Hit molecules were confirmed by performing concentration-response curves and their half maximal inhibitory concentration (IC50) values were calculated using the Kaleidagraph software.
as §2
chemokine activity was then, tested in the in vitro assays. […]

CCL3 = biological target: T5, CCL3 (Homo sapiens, UniProt P10147); test: Selectivity, neutraligand protocol, EGFP-CCR5+ HEK cells; details: 10 μM compound, 5 nM CCL3, EGFP-CCR5+ HEK cells
T5 construct: purchased R&D systems
T5 sequence (P10147 24-92): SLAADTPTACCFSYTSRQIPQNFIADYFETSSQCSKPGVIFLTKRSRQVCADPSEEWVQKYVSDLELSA
Protocol: (§7) Figure 6 (a) Selectivity of CCL17 and CCL22 neutraligands towards 10 chemokines according to the “neutraligand protocol”. […] Each column represents the mean (block) ± SD (bars) of n = 3 experiments performed in triplicate. *p < 0.05; **p < 0.01; ***p < 0.005 as compared to chemokine + DMSO. (b) Chemokine neutraligands inhibited CCR4 endocytosis induced by CCL22 or CCL17. EGFP-CCR4^+ HEK cells were incubated for 30 min with DMSO or chemokine (100 nM CCL22 or CCL17) in the presence or absence of test compounds. […] Cell surface EGFP-tagged CCR4 receptors were measured by EGFP antibody labeling and flow cytometry analysis. CCR4 internalization was expressed as a percentage of total receptor surface expression calculated using control cells incubated with DMSO (100%). Each column represents the mean (block) ± SD (bars) of n = 3 experiments performed in triplicate. *p < 0.05; **p < 0.01; ***p < 0.005 as compared to chemokine alone. (c,d) Inhibition of CCL17 and CCL22- induced CCR4^+HUT78 T cell chemotaxis by neutraligands. […] The number of migrating cells induced by a chemokine alone was set at 100% migration. The number of migrating cells in the presence of chemokine and compounds were expressed as the corresponding percentages. Results were analyzed by fitting the experimental curves (% of migrating cells vs log compound concentration) using the Kaleidagraph software program, and the corresponding IC50 values were calculated. Means and SD values of triplicates were plotted.
(§8) Human cDNAs encoding CCR4 and CXCR3 receptors were cloned in pIRES plasmid (Clontech) while cDNAs encoding CCR2, CCR5, CXCR2 and CXCR4 receptors were cloned in pCEP4 vector (Life technologies). The receptors are cloned in frame with a signal peptide fused to enhanced green fluorescent protein (EGFP) as described previously. All plasmid constructs were fully sequenced prior to transfections. Human Kidney Embryonic HEK-293 cells (ATCC) were maintained in Minimal Essential Medium (MEM, Invitrogen) supplemented with 10% FCS, penicillin (100 U/ml), streptomycin (100 μg/ml) and L-glutamine (2 mM) (Invitrogen) at 37 °C and 5% CO2. The cells were transfected with pIRES EGFP-CCR4 plasmid using calcium phosphate precipitation method. Stably EGFP-CCR4^+ HEK cells were selected for 5 weeks with geneticin (G-418, 600μg/ml), and resulting cell clones were checked by fluorescence microscopy and FACS analysis. HEK cells stably expressing human CXCR2, CXCR3, CXCR4, CCR5 and CCR2 were generated as described previously.
as §6

CCL4 = biological target: T6, CCL4 (Homo sapiens, UniProt P13236); test: as above; details: 10 μM compound, 5 nM CCL4, EGFP-CCR5+ HEK cells
T6 construct: purchased R&D systems
T6 sequence (P13236 24-92): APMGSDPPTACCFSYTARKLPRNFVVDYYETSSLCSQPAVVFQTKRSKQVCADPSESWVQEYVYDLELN
Protocol: as §7, §8, §6

CCL5 = biological target: T7, CCL5 (Homo sapiens, UniProt P13501); test: as above; details: 10 μM compound, 5 nM CCL5, EGFP-CCR5+ HEK cells
T7 construct: (His)6; made in house; host or cells: E. coli BL21 (DE3)
T7 sequence (P13501 24-91): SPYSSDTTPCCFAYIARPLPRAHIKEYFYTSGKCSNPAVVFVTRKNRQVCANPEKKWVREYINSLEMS
Protocol: as §7, §8, §6

CXCL12 = biological target: T8, CXCL12 (Homo sapiens, UniProt P48061); test: TRIC-r calcium assay, neutraligand protocol, EGFP-CXCR4+ HEK cells; details: 10 μM compound, 5 nM CXCL12, EGFP-CXCR4+ HEK cells
T8 construct: (His)6; made in house; host or cells: E. coli BL21 (DE3)
T8 sequence (P48061 22-93): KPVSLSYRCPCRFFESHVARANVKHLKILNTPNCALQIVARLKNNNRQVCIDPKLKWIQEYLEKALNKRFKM

CC(C)=CCn1cnc2c1c(=O)n(C)c(=O)n2C [GPN279, 1,3-dimethyl-7-(3-methylbut-2-enyl)-1H-purine-2,6(3H, 7H)-dione]
calcium response induced by CCL17 N78V preincubated with compound (CCL17 N78V): 75.0 ± 6.0% | calcium response induced by CCL17 R80W preincubated with compound (CCL17 R80W): 50.0 ± 11.0% | calcium response induced by CCL17 S74A preincubated with compound (CCL17 S74A): no longer acted as a neutralizing molecule | calcium response induced by CCL22 R80N preincubated with compound (CCL22 R80N): neither inhibited WT nor CCL22 mutants | effect on calcium responses induced by CCL3 (CCL3): no effect | effect on calcium responses induced by CCL4 (CCL4): no effect | effect on calcium responses induced by CCL5 (CCL5): no effect | effect on calcium responses induced by CXCL12 (CXCL12): no effect

O=C(OCC(O)CO)c1ccccc1O (stereo not shown) [GPN136, 2,3-dihydroxypropyl 2-hydroxybenzoate]
calcium response induced by CCL17 N78V preincubated with compound (CCL17 N78V): totally ineffective | calcium response induced by CCL17 R80W preincubated with compound (CCL17 R80W): totally ineffective | calcium response induced by CCL17 S74A preincubated with compound (CCL17 S74A): totally ineffective | calcium response induced by CCL22 R80N preincubated with compound (CCL22 R80N): 100.0 ± 3.0% | effect on calcium responses induced by CCL3 (CCL3): no effect | effect on calcium responses induced by CCL4 (CCL4): no effect | effect on calcium responses induced by CCL5 (CCL5): no effect | effect on calcium responses induced by CXCL12 (CXCL12): no effect
